Experimental data: patent publication US6048872A, “Arylethanolamine derivatives and their use as agonists of atypical beta-adrenoceptors” (Glaxo Wellcome Inc., priority 1995, dated 2000)
Structures can show the parent of a compound that is named as a salt.

Legend:
[1] = target: T1, human beta-3-adrenoceptor (Homo sapiens, UniProt P13945); assay: cAMP accumulation in CHO cells transfected with the human beta-3-adrenoceptor (Method 1), potency relative to isoprenaline; assay type: cell-based; details: relative potency of test agonist compared to isoprenaline (EC50 ratio), H β3 CHO cells
T1 construct: whole-cell cAMP accumulation, potency relative to isoprenaline
T1 sequence (P13945 whole entry): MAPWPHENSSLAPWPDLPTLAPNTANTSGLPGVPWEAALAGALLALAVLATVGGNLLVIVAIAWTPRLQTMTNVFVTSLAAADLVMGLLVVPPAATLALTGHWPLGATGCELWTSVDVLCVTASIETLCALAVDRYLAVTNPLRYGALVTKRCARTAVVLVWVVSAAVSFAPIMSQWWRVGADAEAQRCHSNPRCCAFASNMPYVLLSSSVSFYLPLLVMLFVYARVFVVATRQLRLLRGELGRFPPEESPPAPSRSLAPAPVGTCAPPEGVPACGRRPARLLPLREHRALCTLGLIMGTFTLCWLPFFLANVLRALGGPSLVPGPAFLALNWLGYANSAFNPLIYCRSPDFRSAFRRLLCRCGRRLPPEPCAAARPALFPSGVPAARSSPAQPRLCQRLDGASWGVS
Experimental: […] The cell lines may also be transfected with human beta-1- and beta-2- adrenoceptor in a similar manner to provide a method of determining the selectivity of the compounds of the invention at the three receptors.
General cell culture guidelines are observed (Fershney, R. A. (1987) Culture of animal cells: A manual of basic technique. Wiley-Liss, Inc., N.Y.). A standard cell culture incubator is used (37° C., 5% CO2 in air, 95% relative humidity). H β3 CHO cells are grown in 75 ml flasks in MEMα medium containing 9% FCS & 125 μg/ml G418. One confluent flask of cells is trypsinised and resuspended in 80 ml of culture medium; 1 ml of the cell suspension is added to each well of three 24-well plates. The plates are then incubated for 1 day.
The medium is aspirated from each well, and the well rinsed with phosphate-buffered saline (PBS, this is then aspirated). 1 ml of MEMα (no FCS or G418, 300μ M IBMX) is added to each well. Antagonists, if required, are added at this stage. The plate is then placed back in the incubator for 30 min. Drugs are then added to the wells (10 μl, 100x required final concentration), the plate gently swirled to mix the drugs, and the plate placed back in the incubator for 30 min. The medium is then aspirated from each well, the well rinsed with PBS, and 0.5 ml perchloric acid (6% v/v in distilled water, 2-5° C.). The plate is left on ice for 30 min. The perchloric acid (containing cAMP) is transferred to a clean 24-well plate and the acid neutralised by addition of saturated KHCO3 solution (200 μl) to each well. The plate is then swirled and frozen (-20° C.) until cAMP is assayed. cAMP is assayed using an enzyme-immunoassay kit (Amersham).
The relative potency of each test agonist (EPMR) is compared to isoprenaline as follows: [formula] wherein EC50 is the molar concentration of agonist which produces 50% of the maximum possible response for that agonist.

[2] = test system: indomethacin-induced antral damage; assay: Protective effect on indomethacin-induced gastric antral lesions in the re-fed rat (Method 2); assay type: in vivo; details: po, rats dosed orally 30 minutes before indomethacin 60 mg/kg s.c., antral damage assessed at 6 hours post dose
Experimental: […] The procedure is based upon that described by H. Satoh et. al., Gastroenterology, 81, 719-725 (1981) in which the effect of compounds on indomethacin-induced gastric antral lesions in the re-fed rat is investigated. Indomethacin is an example of the class of compound known as non-steroidal anti-inflammatory drugs (NSAIDs), the use of which is frequently associated with gastrointestinal ulcers.
Food (but not water) is withheld from female random hooded rats (70-120 g) for 24 hours and then the rats are re-fed with Rat and Mouse No. 1 Maintenance Diet. After 1 hour of access to food, the rats are dosed orally with either the test compound or solvent (0.5% w/v methyl cellulose in water). […]
The rat's stomach is removed (with a small amount of duodenum attached), opened along the greater curvature and the contents removed by washing with 0.9% w/v sodium chloride solution (saline). The opened stomach is pinned out (mucosal surface uppermost) on a polystyrene mat and the area of damage assessed by placing a grid (composed of 1 mm squares) over the antral region. […] The total area of antral damage is then expressed as a percentage of the total surface area of the antrum.
The protective effect of the test compound on indomethacin-induced antral damage is calculated as a percentage using the following equation: [formula]

| SMILES | EPMR [1] | ED50 [2] [µg/kg] |
| --- | --- | --- |
| C[C@H](CNc1cc(F)c(OCC(=O)O)c(F)c1)NC[C@H](O)c1cccc(Cl)c1 [Example 15, (4-{2R-[2-(3-Chloro-phenyl)-2R-hydroxy-ethylamino]-propylamino}-2,6-difluoro-phenoxy)-acetic acid] | 6.0 | – |
| COc1cc(NC[C@@H](C)NC[C@H](O)c2cccc(Cl)c2)c(Cl)cc1CC(=O)O [Example 8, (5-Chloro-4-{2R-[2-(3-chloro-phenyl)-2R-hydroxy-ethylaminol-propylamino}-2-methoxy-phenyl)-acetic acid dihydrochloride] | 0.4 | – |
| C[C@H](CNc1ccc(CC(=O)O)c(F)c1F)NC[C@H](O)c1cccc(Cl)c1 [Example 7, (4-{2R-[2-(3-Chloro-phenyl)-2R-hydroxyl-ethylamino]-propylamino}-2,3-difluoro-phenyl)-acetic acid] | 0.2 | 3 |
